{"source": "patent US9125912B1", "about": "“Method of treating ulcerative colitis” (KING SAUD UNIVERSITY, priority 2015, dated 2015)", "test_system": "ulcerative colitis induced by acetic acid", "assay": "Ulcerative colitis induced by acetic acid in rats, macroscopic parameters", "type": "in vivo, Male Wistar rats", "conditions": "from ulcer index, oral once daily for 5 days before induction, extracts 400 mg/kg, volatile oil 50 mg/kg, dexamethasone 0.1 mg/kg", "text": "The extracts (total alcohol extract, total phenolic contents and volatile oil) of the three plants under investigation were freshly suspended in distilled water just before administration by the aid of Tween 80.\nThe extracts of Ocimum americanum, Ocimum basilicum and Ocimum basilicum var. thyrsiflora were independently administered to rats five days prior to ulcer induction. In detail, twelve experimental groups, each of 6 Male Wistar rats were used. Rats of groups 1 and 2 received the vehicle (5 mL/kg) and served as normal control and control colitis groups. […] Rats of groups 4-12 received the volatile oil extract, the total alcohol extract and the total phenolic extract of each of the three plants. Doses of 400 mg/kg of the total alcohol extract and the phenolic content were administered. Doses of 50 mg/kg of the volatile oil were administered. All medications were administered orally, once daily for 5 successive days and the last dose was administered 2 hours before colitis induction.\nAnimals were fasted overnight, with access to water ad libitum. Under ether anesthesia a solution of 2 mL (4%, v/v) acetic acid in saline was slowly infused into the colon through the polyethylene catheter 2 mm diameter that was inserted into the lumen of the colon via the anus to a distance of 8 cm. […]\nThe colon specimens were weighted and wet weight/length ratio was calculated for all the rats. The specimens were examined under a dissecting microscope and the lesion scores were quantified by scoring system (0-5).\nUlcer area was measured using plane glass square. Each cell on the glass square was 1 mm^2 in area and the number of cells was counted and the ulcer area was determined for each colon.\nUlcer index (UI) was measured by summing the lesion score and the ulcer area for each colon specimen. The curative ratio was determined according to the formula: Curative ratio=Control UI−Test UI/Control UI×100.\nData were expressed as mean±S. D. Statistical analysis was done by using SPSS 14. Statistical significance of differences between two means was assessed by unpaired Student's ‘t’ test. […]"}
{"compound": "C[C@@H]1C[C@H]2[C@@H]3CCC4=CC(=O)C=C[C@]4(C)[C@@]3(F)[C@@H](O)C[C@]2(C)[C@@]1(O)C(=O)CO", "note": "[Dexamethasone]", "values": [{"measurement": "% Protection from control colitis", "value": 71.54, "unit": "%"}, {"measurement": "% Protection from control colitis", "setting": "listed as dexamesthasone", "value": "about 71.54%"}, {"measurement": "% Protection from control colitis", "setting": "listed as dexamethasone", "value": 71.54, "unit": "%"}]}
